The source of these data is patent US20080207529A1, “Isolated Dipeptides with Ace Inhibitor Effect” (CHR. HANSEN A/S, priority 2005, published 2008).

The target of this assay is angiotensin-converting enzyme (ACE) (Homo sapiens, UniProt P12821). Kind of assay: BioSelact on-line ACE inhibitor bioassay (Kiadis). The format is biochemical. To be noted: determined by the BioSelect method of Kiadis of aqueous extracts of the fat+cell fraction.
Chain of angiotensin-converting enzyme (ACE) (P12821 30-1306, species assumed): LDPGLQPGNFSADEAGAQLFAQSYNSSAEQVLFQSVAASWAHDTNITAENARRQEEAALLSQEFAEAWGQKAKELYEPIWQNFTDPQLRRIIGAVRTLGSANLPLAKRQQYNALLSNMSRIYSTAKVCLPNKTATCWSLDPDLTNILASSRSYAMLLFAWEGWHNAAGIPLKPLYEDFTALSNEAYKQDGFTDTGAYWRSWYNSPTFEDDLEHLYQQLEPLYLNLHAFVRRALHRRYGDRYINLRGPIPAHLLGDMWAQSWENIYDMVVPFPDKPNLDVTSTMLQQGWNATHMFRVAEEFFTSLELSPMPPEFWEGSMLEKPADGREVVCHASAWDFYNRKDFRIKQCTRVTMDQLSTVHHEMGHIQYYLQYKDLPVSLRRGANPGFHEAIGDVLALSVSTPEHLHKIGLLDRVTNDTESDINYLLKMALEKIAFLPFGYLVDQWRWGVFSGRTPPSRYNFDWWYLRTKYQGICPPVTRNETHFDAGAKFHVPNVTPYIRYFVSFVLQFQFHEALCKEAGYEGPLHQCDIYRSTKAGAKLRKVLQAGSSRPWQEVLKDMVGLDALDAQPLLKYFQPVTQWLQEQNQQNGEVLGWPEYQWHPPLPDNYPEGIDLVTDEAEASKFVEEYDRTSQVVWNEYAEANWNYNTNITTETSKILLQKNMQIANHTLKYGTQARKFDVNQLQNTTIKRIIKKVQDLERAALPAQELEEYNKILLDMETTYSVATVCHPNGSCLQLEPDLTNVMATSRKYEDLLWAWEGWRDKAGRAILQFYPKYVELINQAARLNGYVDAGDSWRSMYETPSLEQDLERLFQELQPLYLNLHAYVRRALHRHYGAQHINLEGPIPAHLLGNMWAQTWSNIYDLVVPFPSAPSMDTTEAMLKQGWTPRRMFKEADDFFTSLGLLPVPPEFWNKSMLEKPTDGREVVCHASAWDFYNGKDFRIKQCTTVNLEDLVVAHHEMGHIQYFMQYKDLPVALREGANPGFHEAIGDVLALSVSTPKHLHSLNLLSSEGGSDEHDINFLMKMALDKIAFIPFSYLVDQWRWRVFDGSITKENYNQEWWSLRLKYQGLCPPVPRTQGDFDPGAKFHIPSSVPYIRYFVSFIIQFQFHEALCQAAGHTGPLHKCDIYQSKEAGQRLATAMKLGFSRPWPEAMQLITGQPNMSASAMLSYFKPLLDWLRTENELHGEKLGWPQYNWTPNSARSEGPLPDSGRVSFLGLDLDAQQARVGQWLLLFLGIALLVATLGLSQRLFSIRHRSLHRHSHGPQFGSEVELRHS

Procedure: Supernatants of whole fermentations, whey liquids, chloroform and aqueous extracts from fat/cell fractions were all pH adjusted before analysis. First the solutions were adjusted to pH 3. After centrifugation the precipitate was removed. During a second step the pH was adjusted to 7.5 (pH of bioassay). Again precipitate was removed from the solution after centrifugation. The remaining supernatants were used for BioSelact analysis.
250 mg of fat/cell preparation was extracted with 250 μl MilliQ. The solution was positioned on a flat shaker for 2 hours at room temperature. The fat/cell fraction was removed after extraction by centrifugation.
During the first step of the BioSelact analysis, the aqueous solutions were analyzed by applying a general chromatographic gradient: 5-95% MeOH/0.05% TFA in 75 min. For these general analyses a Phenomenex, LUNA C18(2), 5 μm, 2*250 mm analytical column was used. The chromatographic separation was carried out at a flow rate of 0.2 ml/min at ambient temperature. The injection volume was 250 μl. The organic modifier concentration in the Liquid Chromatography (LC) effluent was decreased to bioassay compatible levels by performing continuous dilution using the BioGradient composition from Kiadis. […]
After completing the first general chromatographic ‘sweep’, the presence of bioactivity in each sample was carefully assessed by the Kiadis ACE inhibitor assay. […]

Turning to Ile-Pro-Pro [IPP], the “Relative inhibition (relative ACE inhibitory activity)” value is recorded as 0.7%.
